In patent US9856262B2, “Analogues of 4H-pyrazolo[1,5-a] benzimidazole compound as PARP inhibitors” (HUBEI BIO-PHARMACEUTICAL INDUSTRIAL TECHNOLOGICAL INSTITUTE …, priority 2014, dated 2018):

Key:
[1] = molecular target: T1, PARP-1 (Homo sapiens, UniProt P09874); assay: PARP enzymatic assay (HT Universal Colorimetric PARP1 Assay Kit); format: biochemical; conditions: read-out: PARP-1 enzymatic inhibition IC50
T1 construct: purchased
Procedure: PARP Enzymatic Assay (Following the Manual of HT Universal Colorimetric PARP1 Assay Kit).
Histone proteins were coated on a 96-well plate and incubated overnight at 4° C. After be washed 3 times with 200 ul PBST solution, the plate was blocked with a blocking solution and incubated for 30 min at room temperature, and then washed with PBST solution 3 times. A compound to be tested was treated and added to the plate. Thereafter, 20 μl of diluted PARP1 (1 nM) or 20 μl of PARP2 (3 nM) solution was added into the reaction system and incubated for 1 or 2 hours. 50 ul of streptavidin-HRP mixture (1:50) was added into the plate and incubated for 30 min at room temperature. The plate was then washed with three times with PBST buffer. 100 μl of (HRP) (Chemiluminescent substrate A and substrate B (1:1)) was added into the plate, and the plate was immediately read on a microplate reader (Envision, PerkinElmer).

[2] = tested on: HCC1937 cells; assay: Cellular PARylation assay; format: cell-based; conditions: Homo sapiens; HCC1937 cells, compound 30 min then 1 mM H2O2 10 min; read-out: cellular PARylation EC50
Procedure: Cellular PARylation Assay
HCC1937 cells were planted into 96 well plates at 4×10^4 cells/well and incubated at 37° C. in an incubator overnight. After being treated with a test compound for 30 min, cells were then treated with 1 mM H2O2 for 10 min. The cells were washed with 200 ul pre-chilled PBS twice and fixed with 100 ul pre-chilled methanol/acetone (7:3) on ice for 30 min. After being air-dried, the plates were blocked using PBS-Tween blocking solution (0.05%) with dissolved 5% nonfat dry milk for 30 min at room temperature. The cells were incubated with anti-PAR antibody 10H (1:100) at room temperature for 1 hour followed by washing with PBS-Tween20 for 3 times; and then added into a blocking solution including goat anti-mouse fluorescein isothiocyanate (FITC)-coupled secondary antibody and 1 μg/mL DAPI to incubate away from light at room temperature for 1 hour. After being washed with PBS-Tween20 for 3 times, the plate was analyzed with a fluorescence microplate counter (Flexstation III, Molecular Device).

T1 sequence (P09874 whole entry): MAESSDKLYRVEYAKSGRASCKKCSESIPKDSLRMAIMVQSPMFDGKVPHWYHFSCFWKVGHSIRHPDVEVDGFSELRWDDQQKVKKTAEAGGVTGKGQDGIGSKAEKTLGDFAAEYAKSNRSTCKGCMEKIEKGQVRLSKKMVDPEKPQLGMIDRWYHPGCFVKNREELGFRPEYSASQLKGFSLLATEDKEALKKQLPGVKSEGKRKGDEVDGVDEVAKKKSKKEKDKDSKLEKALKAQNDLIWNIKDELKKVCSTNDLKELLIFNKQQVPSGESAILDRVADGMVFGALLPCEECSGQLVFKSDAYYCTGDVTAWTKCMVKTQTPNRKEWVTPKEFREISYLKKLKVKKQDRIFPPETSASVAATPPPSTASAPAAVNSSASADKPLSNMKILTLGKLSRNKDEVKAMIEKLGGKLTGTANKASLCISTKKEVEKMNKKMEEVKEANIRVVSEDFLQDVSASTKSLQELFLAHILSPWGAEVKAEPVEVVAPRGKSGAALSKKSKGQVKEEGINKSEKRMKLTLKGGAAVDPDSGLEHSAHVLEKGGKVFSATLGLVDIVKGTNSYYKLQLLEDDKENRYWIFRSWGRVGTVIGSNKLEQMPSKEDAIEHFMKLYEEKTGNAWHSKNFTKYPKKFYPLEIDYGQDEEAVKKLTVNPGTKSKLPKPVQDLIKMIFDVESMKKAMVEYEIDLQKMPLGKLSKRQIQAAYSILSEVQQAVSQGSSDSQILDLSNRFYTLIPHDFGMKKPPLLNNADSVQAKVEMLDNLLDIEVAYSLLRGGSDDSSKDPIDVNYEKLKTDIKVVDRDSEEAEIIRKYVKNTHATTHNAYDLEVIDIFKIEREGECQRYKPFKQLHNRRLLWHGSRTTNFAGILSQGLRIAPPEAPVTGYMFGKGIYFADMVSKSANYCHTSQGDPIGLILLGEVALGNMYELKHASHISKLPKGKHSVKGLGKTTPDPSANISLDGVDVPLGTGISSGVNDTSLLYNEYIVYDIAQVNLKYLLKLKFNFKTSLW

| Compound | IC50 [1] [nM] | EC50 [2] [nM] |
| --- | --- | --- |
| Cn1ccnc1CN1CCC(C)(c2cnn3c2[nH]c2cc(F)cc(C(N)=O)c23)CC1 [Example 84, 6-fluoro-3-(4-methyl-1-((1-methyl-1H-imidazol-2-yl)methyl)piperidin-4-yl)-4H-benzo[4,5]imidazo[1,2-b]pyrazole-8-carboxamide] | 1 to 100 | 1 to 100 |
| CCOC(=O)C1CC1CN1CCC(C)(c2cnn3c2[nH]c2cc(F)cc(C(N)=O)c23)CC1 (stereo not drawn) [Example 80, ethyl 2-((4-(8-carbamoyl-6-fluoro-4H-benzo[4,5]imidazo[1,2-b]pyrazol-3-yl)-4-methylpiperidin-1-yl)methyl)cyclopropanecarboxylate] | 1 to 100 | 1 to 100 |
| CCN1CCCC(c2cnn3c2[nH]c2cc(F)cc(C(N)=O)c23)C1 (stereo not drawn) [Example 17, 3-(1-ethylpiperidin-3-yl)-6-fluoro-4H-benzo[4,5]imidazo[1,2-b]pyrazole-8-carboxamide] | 1 to 100 | 101 to 1000 |
| CC1(c2cnn3c2[nH]c2cc(F)cc(C(N)=O)c23)CCN(CC2(C#N)CCC2)CC1 [Example 64, 3-(1-((1-cyanocyclobutyl)methyl)-4-methylpiperidin-4-yl)-6-fluoro-4H-benzo[4,5]imidazo[1,2-b]pyrazole-8-carboxamide] | 1 to 100 | 101 to 1000 |
| NC(=O)c1cc(F)cc2[nH]c3c(C4CCN(CC5CC5)CC4)cnn3c12 [Example 5, 3-(1-(cyclopropylmethyl)piperidin-4-yl)-6-fluoro-4H-benzo[4,5]imidazo[1,2-b]pyrazole-8-carboxamide] | 1 to 100 | 1 to 100 |
| CN(C)C(=O)C1CC1CN1CCC(C)(c2cnn3c2[nH]c2cc(F)cc(C(N)=O)c23)CC1 (stereo not drawn) [Example 81] | 1 to 100 | 1 to 100 |
| CC(C)N1CCC(c2cnn3c2[nH]c2cc(F)cc(C(N)=O)c23)CC1 [Example 10, 6-fluoro-3-(1-isopropylpiperidin-4-yl)-4H-benzo[4,5]imidazo[1,2-b]pyrazole-8-carboxamide] | 1 to 100 | 1 to 100 |
| CC1(c2cnn3c2[nH]c2cc(F)cc(C(N)=O)c23)CCN(CC2COC2)CC1 [Example 68, 6-fluoro-3-(4-methyl-1-(oxetan-3-ylmethyl)piperidin-4-yl)-4H-benzo[4,5]imidazo[1,2-b]pyrazole-8-carboxamide] | 1 to 100 | 1 to 100 |
| CC1(c2cnn3c2[nH]c2cc(F)cc(C(N)=O)c23)CCN(CC2(N)CC2)CC1 [Example 67, 3-(1-((1-aminocyclopropyl)methyl)-4-methylpiperidin-4-yl)-6-fluoro-4H-benzo[4,5]imidazo[1,2-b]pyrazole-8-carboxamide] | 1 to 100 | 1 to 100 |
| NCCN1CCC(c2cnn3c2[nH]c2cc(F)cc(C(N)=O)c23)CC1 [Example 13, 3-(1-(2-aminoethyl)piperidin-4-yl)-6-fluoro-4H-benzo[4,5]imidazo[1,2-b]pyrazole-8-carboxamide] | 1 to 100 | 101 to 1000 |
| CC1(c2cnn3c2[nH]c2cc(F)cc(C(N)=O)c23)CCN(C2CC(F)C2)CC1 (stereo not drawn) [Example 76, 6-fluoro-3-(1-(3-fluorocyclobutyl)-4-methylpiperidin-4-yl)-4H-benzo[4,5]imidazo[1,2-b]pyrazole-8-carboxamide] | 1 to 100 | 1 to 100 |
| CN1CC(CN2CCC(C)(c3cnn4c3[nH]c3cc(F)cc(C(N)=O)c34)CC2)C1 [Example 79, 6-fluoro-3-(4-methyl-1-((1-methylazetidin-3-yl)methyl)piperidin-4-yl)-4H-benzo[4,5]imidazo[1,2-b]pyrazole-8-carboxamide] | 1 to 100 | 1 to 100 |
| CCCN1CCC(c2cnn3c2[nH]c2cc(F)cc(C(N)=O)c23)CC1 [Example 12, 6-fluoro-3-(1-propylpiperidin-4-yl)-4H-benzo[4,5]imidazo[1,2-b]pyrazole-8-carboxamide] | 1 to 100 | 1 to 100 |
| CCN1CCC(CC)(c2cnn3c2[nH]c2cc(F)cc(C(N)=O)c23)CC1 [Example 107, 3-(1,4-diethylpiperidin-4-yl)-6-fluoro-4H-benzo[4,5]imidazo[1,2-b]pyrazole-8-carboxamide] | 1 to 100 | 1 to 100 |
| CC(C)CN1CCC(C)(c2cnn3c2[nH]c2cc(F)cc(C(N)=O)c23)CC1 [Example 82, 6-fluoro-3-(1-isobutyl-4-methylpiperidin-4-yl)-4H-benzo[4,5]imidazo[1,2-b]pyrazole-8-carboxamide] | 1 to 100 | 1 to 100 |

More lines, now with the values ahead:

| IC50 [1] [nM] | EC50 [2] [nM] | Compound |
| --- | --- | --- |
| 1 to 100 | 1 to 100 | CN1CCC(c2cnn3c2[nH]c2cc(F)cc(C(N)=O)c23)C1 (stereo not drawn) [Example 20, 6-fluoro-3-(1-methylpyrrolidin-3-yl)-4H-benzo[4,5]imidazo[1,2-b]pyrazole-8-carboxamide] |
| 1 to 100 | > 1000 | NC(=O)c1cc(F)cc2[nH]c3c(C4CCOCC4)cnn3c12 [Example 47, 6-fluoro-3-(tetrahydro-2H-pyran-4-yl)-4H-benzo[4,5]imidazo[1,2-b]pyrazole-8-carboxamide] |
| 1 to 100 | 1 to 100 | CC(C)N1CCC(C)(c2cnn3c2[nH]c2cc(F)cc(C(N)=O)c23)C1 (stereo not drawn) [Example 92, 6-fluoro-3-(1-isopropyl-3-methylpyrrolidin-3-yl)-4H-benzo[4,5]imidazo[1,2-b]pyrazole-8-carboxamide] |
| 1 to 100 | 101 to 1000 | NCc1cnn2c1[nH]c1cc(F)cc(C(N)=O)c12 [Example 39, 3-(aminomethyl)-6-fluoro-4H-benzo[4,5]imidazo[1,2-b]pyrazole-8-carboxamide] |
| 1 to 100 | 1 to 100 | CC1(c2cnn3c2[nH]c2cc(F)cc(C(N)=O)c23)CCN(CC2CC2)C1 (stereo not drawn) [Example 93, 3-(1-(cyclopropylmethyl)-3-methylpyrrolidin-3-yl)-6-fluoro-4H-benzo[4,5]imidazo[1,2-b]pyrazole-8-carboxamide] |
| 1 to 100 | 1 to 100 | CCN1CCC(C)(c2cnn3c2[nH]c2cc(F)cc(C(N)=O)c23)C1 (stereo not drawn) [Example 90, 3-(1-ethyl-3-methylpyrrolidin-3-yl)-6-fluoro-4H-benzo[4,5]imidazo[1,2-b]pyrazole-8-carboxamide] |
| 1 to 100 | 101 to 1000 | CC1(c2cnn3c2[nH]c2cc(F)cc(C(N)=O)c23)CCN(S(C)(=O)=O)CC1 [Example 75, 6-fluoro-3-(4-methyl-1-(methylsulfonyl)piperidin-4-yl)-4H-benzo[4,5]imidazo[1,2-b]pyrazole-8-carboxamide] |
| 1 to 100 | 1 to 100 | CN1CCC(C)(c2cnn3c2[nH]c2cc(F)cc(C(N)=O)c23)C1 (stereo not drawn) [Example 91, 3-(1,3-dimethylpyrrolidin-3-yl)-6-fluoro-4H-benzo[4,5]imidazo[1,2-b]pyrazole-8-carboxamide] |
| 1 to 100 | 101 to 1000 | CC1(c2cnn3c2[nH]c2cc(F)cc(C(N)=O)c23)CCN(CCS(C)(=O)=O)C1 (stereo not drawn) [Example 98, 6-fluoro-3-(3-methyl-1-(2-(methylsulfonyl)ethyl)pyrrolidin-3-yl)-4H-benzo[4,5]imidazo[1,2-b]pyrazole-8-carboxamide] |
| 1 to 100 | 1 to 100 | CCN1CCC(c2cnn3c2[nH]c2cccc(C(N)=O)c23)CC1 [Example 27, 3-(1-ethylpiperidin-4-yl)-4H-benzo[4,5]imidazo[1,2-b]pyrazole-8-carboxamide] |
| 1 to 100 | 1 to 100 | CC1(c2cnn3c2[nH]c2cc(F)cc(C(N)=O)c23)CCN(CCC(F)(F)F)C1 (stereo not drawn) [Example 99, 6-fluoro-3-(3-methyl-1-(3,3,3-trifluoropropyl)pyrrolidin-3-yl)-4H-benzo[4,5]imidazo[1,2-b]pyrazole-8-carboxamide] |
| 1 to 100 | 1 to 100 | CCN1CC2CC2(c2cnn3c2[nH]c2cc(F)cc(C(N)=O)c23)C1 (stereo not drawn) [Example 29, 3-(3-ethyl-3-azabicyclo[3.1.0]hexan-1-yl)-6-fluoro-4H-benzo[4,5]imidazo[1,2-b]pyrazole-8-carboxamide] |
| 1 to 100 | 101 to 1000 | CC1(c2cnn3c2[nH]c2cc(F)cc(C(N)=O)c23)CCN(C2COC2)C1 (stereo not drawn) [Example 94, 6-fluoro-3-(3-methyl-1-(oxetan-3-yl)pyrrolidin-3-yl)-4H-benzo[4,5]imidazo[1,2-b]pyrazole-8-carboxamide] |
| 1 to 100 | 1 to 100 | CN1CC2CC2(c2cnn3c2[nH]c2cc(F)cc(C(N)=O)c23)C1 (stereo not drawn) [Example 28, 6-fluoro-3-(3-methyl-3-azabicyclo[3.1.0]hexan-1-yl)-4H-benzo[4,5]imidazo[1,2-b]pyrazole-8-carboxamide] |
| 1 to 100 | 101 to 1000 | CC1(c2cnn3c2[nH]c2cc(F)cc(C(N)=O)c23)CCN(CCC#N)C1 (stereo not drawn) [Example 103, 3-(1-(2-cyanoethyl)-3-methylpyrrolidin-3-yl)-6-fluoro-4H-benzo[4,5]imidazo[1,2-b]pyrazole-8-carboxamide] |
